Square brackets hold non-standard residues; d marks the D form. Peptide text beside a SMILES is read from it. * marks the point of attachment. Tic = O=C(O)[C@@H]1Cc2ccccc2CN1; dPhg = N[C@@H](C(=O)O)c1ccccc1; Boc = CC(C)(C)OC(=O)*
Experiments:
Prothrombin = Prothrombin (Bos taurus, UniProt P00735); experiment: In vitro Enzyme Inhibitory activity measured against Thrombin
[1] = Ratio of IC50 towards Tissue Plasminogen activator to thrombin
[2] = biological target: Tissue-type plasminogen activator (Homo sapiens, UniProt P00750); experiment: In vitro Enzyme Inhibitory activity against t-PA(Tissue plasminogen activator).
Plasminogen = Plasminogen (Homo sapiens, UniProt P00747); experiment: In vitro Enzyme Inhibitory activity measured against Plasmin
[3] = Ratio of IC50 towards Plasmin to thrombin
Coagulation factor X = Coagulation factor X (Bos taurus, UniProt P00743); experiment: In vitro Enzyme Inhibitory activity measured against Coagulation factor X
Serine protease 1 = biological target: T1, Serine protease 1 (Bos taurus, UniProt P00760); experiment: In vitro Enzyme Inhibitory activity measured against Trypsin
T1 sequence (P00760 whole entry): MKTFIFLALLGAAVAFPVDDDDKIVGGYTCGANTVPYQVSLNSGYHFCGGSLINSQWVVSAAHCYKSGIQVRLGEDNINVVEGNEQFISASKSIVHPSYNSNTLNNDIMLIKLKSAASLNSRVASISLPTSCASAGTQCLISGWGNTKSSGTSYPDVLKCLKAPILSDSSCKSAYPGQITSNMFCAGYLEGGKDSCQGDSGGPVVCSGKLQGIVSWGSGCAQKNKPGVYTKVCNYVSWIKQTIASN

Tissue-type plasminogen activator, sequence (P00750 whole entry): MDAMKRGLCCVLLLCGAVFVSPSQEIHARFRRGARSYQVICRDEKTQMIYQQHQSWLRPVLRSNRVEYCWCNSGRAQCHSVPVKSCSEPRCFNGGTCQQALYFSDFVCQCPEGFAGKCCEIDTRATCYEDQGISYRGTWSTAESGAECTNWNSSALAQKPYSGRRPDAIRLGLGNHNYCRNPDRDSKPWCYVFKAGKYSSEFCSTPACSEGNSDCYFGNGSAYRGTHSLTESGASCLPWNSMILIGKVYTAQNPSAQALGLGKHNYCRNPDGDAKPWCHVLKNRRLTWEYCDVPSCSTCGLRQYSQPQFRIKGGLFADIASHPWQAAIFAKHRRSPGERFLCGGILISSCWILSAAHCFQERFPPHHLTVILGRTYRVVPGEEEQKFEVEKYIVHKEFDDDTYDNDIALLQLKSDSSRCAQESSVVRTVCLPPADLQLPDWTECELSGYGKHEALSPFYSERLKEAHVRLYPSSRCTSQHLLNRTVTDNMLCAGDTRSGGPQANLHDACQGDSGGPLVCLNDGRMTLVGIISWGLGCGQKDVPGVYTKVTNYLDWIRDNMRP
Coagulation factor X, sequence (P00743 41-180 limits assumed): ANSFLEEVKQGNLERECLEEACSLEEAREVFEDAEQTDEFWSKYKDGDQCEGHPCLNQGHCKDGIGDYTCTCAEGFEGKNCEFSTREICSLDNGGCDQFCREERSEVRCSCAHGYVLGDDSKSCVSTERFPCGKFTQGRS
Coagulation factor X, sequence (P00743 234-492 limits assumed): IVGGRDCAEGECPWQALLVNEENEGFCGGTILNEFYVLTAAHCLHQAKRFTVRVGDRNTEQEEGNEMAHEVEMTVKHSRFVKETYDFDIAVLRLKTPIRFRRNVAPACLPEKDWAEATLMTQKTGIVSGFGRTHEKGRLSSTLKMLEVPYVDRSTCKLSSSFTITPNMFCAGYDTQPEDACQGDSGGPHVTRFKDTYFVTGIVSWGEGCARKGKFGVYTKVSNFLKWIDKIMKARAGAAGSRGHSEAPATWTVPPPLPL
Plasminogen, sequence (P00747 97-580 limits assumed): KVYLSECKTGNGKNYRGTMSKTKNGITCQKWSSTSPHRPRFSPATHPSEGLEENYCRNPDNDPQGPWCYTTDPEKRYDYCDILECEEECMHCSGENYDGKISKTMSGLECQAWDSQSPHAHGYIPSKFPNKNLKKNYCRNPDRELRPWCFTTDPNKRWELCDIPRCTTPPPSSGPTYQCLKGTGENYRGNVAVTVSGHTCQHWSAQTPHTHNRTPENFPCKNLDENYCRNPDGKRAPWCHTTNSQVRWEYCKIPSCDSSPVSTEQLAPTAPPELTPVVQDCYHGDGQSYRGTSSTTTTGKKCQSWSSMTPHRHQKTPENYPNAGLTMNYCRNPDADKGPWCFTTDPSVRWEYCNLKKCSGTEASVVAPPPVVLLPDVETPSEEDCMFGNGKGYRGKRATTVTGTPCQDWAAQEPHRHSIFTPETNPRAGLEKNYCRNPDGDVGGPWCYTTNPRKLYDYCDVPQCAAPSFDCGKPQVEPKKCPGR
Plasminogen, sequence (P00747 581-810 limits assumed): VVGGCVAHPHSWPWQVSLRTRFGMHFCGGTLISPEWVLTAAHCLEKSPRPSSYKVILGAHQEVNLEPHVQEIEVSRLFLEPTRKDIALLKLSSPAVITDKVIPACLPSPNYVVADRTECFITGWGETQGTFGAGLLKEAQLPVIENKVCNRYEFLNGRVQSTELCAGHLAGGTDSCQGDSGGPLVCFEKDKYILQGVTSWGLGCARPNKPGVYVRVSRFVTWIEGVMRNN

Row | Compound | IC50 (Prothrombin) [µM] | Selectivity [1] | IC50 [2] [µM] | IC50 (Plasminogen) [µM] | Selectivity [3] | IC50 (Coagulation factor X) [µM] | IC50 (Serine protease 1) [µM]
1 | CC[C@](NC(=O)C(F)(F)F)(C(=O)N1CC[C@H]1C(=O)N[C@H](C=O)CCCN=C(N)N)c1ccccc1 |  |  |  | 4.3 |  | 32 | 0.0052
2 | CC(C)(C)OC(=O)NC(Cc1ccccc1)C(=O)N1C(C(=O)N[C@H](C=O)CCCN=C(N)N)CCC1(C)C (stereo in doubt) [listing 1 of 3 here] |  | > 50000 |  |  | 38 |  | 
3 | CC(=O)N[C@@](C)(C(=O)N1CC[C@H]1C(=O)N[C@H](C=O)CCCNC(=N)N)c1ccccc1 | 0.019 |  | 250 | 7.5 |  | 86 | 0.011
4 | CC(C)(C)OC(=O)NC(Cc1ccccc1)C(=O)N1CC[C@H]1C(=O)N[C@@H](CCCN=C(N)N)C(=O)O (stereo in doubt) | 0.018 | 50 |  |  | 20 |  | 
5 | CC(C)(C)OC(=O)NC(Cc1ccccc1)C(=O)N1C(C(=O)N[C@H](C=O)CCCN=C(N)N)CCC1(C)C (stereo in doubt) [listing 2 of 3 here] |  |  | > 30000 | 11 |  | 18 | 0.17
6 | CC(C)(C)OC(=O)N[C@@H](C(=O)N1CC[C@H]1C(=O)N[C@H](C=O)CCCN=C(N)N)c1ccccc1 |  |  | 6.6 | 0.15 |  | 0.27 | 0.011
7 | N=C(N)NCCC[C@@H](C=O)NC(=O)[C@@H]1CCCN1C(=O)[C@@H]1NCC[C@@H]2CCCC[C@@H]21 | 0.019 | 1800 | 34 | 0.71 | 40 | 0.55 | 0.053
8 | CC(C)(C)OC(=O)N[C@H](Cc1ccccc1)C(=O)N1CC[C@H]1C(=O)N[C@H](C=O)CCCNC(=N)N |  |  | 0.9 | 0.36 |  | 1.3 | 0.0097
9 | CC(C)(C)OC(=O)N[C@@H](C(=O)N1CCC[C@H]1C(=O)N[C@H](C=O)CCCN=C(N)N)c1ccccc1 (Boc-[dPhg]-Pro-Arg-aldehyde) | 0.016 | 540 | 8.7 |  | 6 | 0.26 | 0.0098
10 | N=C(N)NCCC[C@@H](C=O)NC(=O)[C@@H]1CCCN1C(=O)[C@@H]1Cc2ccccc2CN1 (H-[Tic]-Pro-Arg-aldehyde) | 0.019 |  | 430 |  |  | 0.64 | 0.023
11 | N=C(N)NCCC[C@@H](C=O)NC(=O)[C@@H]1CCCN1C(=O)[C@@H]1C[C@@H]2CCCC[C@@H]2CN1 | 0.046 | 650 | 30 | 0.23 | 5 | 3.3 | 0.0091
12 | CC(C)(C)OC(=O)N[C@@H](Cc1ccccc1)C(=O)N1CCCC[C@H]1C(=O)N[C@H](C=O)CCCNC(=N)N | 1.7 |  | 48 | 8.1 |  | 32 | 0.72
13 | C[C@](NC(=O)C(F)(F)F)(C(=O)N1CC[C@H]1C(=O)N[C@H](C=O)CCCN=C(N)N)c1ccccc1 | 0.012 | 11000 | 130 | 6.1 | 510 | 98 | 0.0096
14 | CC(C)(C)OC(=O)N[C@@](C)(C(=O)N1CC[C@H]1C(=O)N[C@H](C=O)CCCN=C(N)N)c1ccccc1 | 0.022 | 5500 | 120 | 3.9 | 180 | 0.89 | 0.015
15 | CC(C)(C)OC(=O)N[C@H](Cc1ccccc1)C(=O)N1CCC[C@H]1C(=O)N[C@H](C=O)CCCN=C(N)N | 0.045 | 20 | 0.95 |  | 4 | 1.6 | 0.014

The remaining lines, values ahead:

Row | IC50 (Prothrombin) [µM] | Selectivity [1] | IC50 [2] [µM] | IC50 (Plasminogen) [µM] | Selectivity [3] | IC50 (Coagulation factor X) [µM] | IC50 (Serine protease 1) [µM] | Compound
16 | 0.064 | > 50000 | > 30000 | 45 | 700 | 190 | 0.18 | C[C@](NC(=O)C(F)(F)F)(C(=O)N1CCC[C@H]1C(=O)N[C@H](C=O)CCCN=C(N)N)c1ccccc1
17 | 0.0089 |  | 21 | 0.67 |  | 7.6 | 0.013 | CN[C@H](Cc1ccccc1)C(=O)N1CCC[C@H]1C(=O)N[C@H](C=O)CCCN=C(N)N
18 |  | 13000 |  |  | 400 |  |  | CC(=O)N[C@@](C)(C(=O)N1CC[C@H]1C(=O)N[C@H](C=O)CCCN=C(N)N)c1ccccc1
19 | 0.088 |  |  |  |  |  |  | CC(C)(C)OC(=O)NC(Cc1ccccc1)C(=O)N1CSCC1C(=O)N[C@H](C=O)CCCN=C(N)N (stereo in doubt) [listing 1 of 3 here]
20 | 0.29 |  |  |  |  |  |  | CC(C)(C)OC(=O)NC(Cc1ccccc1)C(=O)N1C(C(=O)N[C@H](C=O)CCCN=C(N)N)CCC1(C)C (stereo in doubt) [listing 3 of 3 here]
21 |  | 30 |  |  | 5 |  |  | CC(C)(C)OC(=O)N[C@@H](Cc1ccccc1)C(=O)N1CCCC[C@H]1C(=O)N[C@H](C=O)CCCN=C(N)N
22 | 1 | > 30000 | > 30000 | 850 | 850 | 1800 | 240 | CN[C@@H](Cc1ccccc1)C(=O)N1CCC[C@H]1C(=O)N[C@](C)(C=O)CCCN=C(N)N
23 |  |  | 23 | 0.34 |  | 0.86 | 0.0088 | CC(C)(C)OC(=O)NC(Cc1ccccc1)C(=O)N1CSCC1C(=O)N[C@H](C=O)CCCN=C(N)N (stereo in doubt) [listing 2 of 3 here]
24 |  | 260 |  |  | 4 |  |  | CC(C)(C)OC(=O)NC(Cc1ccccc1)C(=O)N1CSCC1C(=O)N[C@H](C=O)CCCN=C(N)N (stereo in doubt) [listing 3 of 3 here]
25 |  | 2400 |  |  | 80 |  |  | CN[C@H](Cc1ccccc1)C(=O)N1CCC[C@H]1C(=O)N[C@H](C=O)CCCNC(=N)N
